Results reported in publication PMC6600665, “Identification and Characterization of Approved Drugs and Drug-Like Compounds as Covalent Escherichia coli ClpP Inhibitors” (International Journal of Molecular Sciences, 2019).
Several values for one entry are separate records, joined by “and”; a condition that tells them apart may be missing. Equal values may be shown once. Peptide text beside a SMILES is read from it.

How the values were obtained:
E. coli ClpP [1] = molecular target: T1, E. coli ClpP (Escherichia coli, UniProt P0A6G7); test: Fluorescence-based E. coli ClpP proteolytic activity assay (Suc-LY-AMC), primary screen and dose-response; assay type: biochemical; conditions: for E. coli ClpP inhibition [%] in the primary screen: 200 µM; for inhibition at 200 µM: read-out: E. coli ClpP inhibition [%] in the primary screen, primary screen, 200 µM; for Inhibition (%) at 200 μM E. coli ClpP: 200 μM compound concentration; for IC50: read-out: E. coli ClpP IC50
T1 construct: His-tag; made in house; host or cells: E. coli SG1146a
T1 sequence (P0A6G7 15-207): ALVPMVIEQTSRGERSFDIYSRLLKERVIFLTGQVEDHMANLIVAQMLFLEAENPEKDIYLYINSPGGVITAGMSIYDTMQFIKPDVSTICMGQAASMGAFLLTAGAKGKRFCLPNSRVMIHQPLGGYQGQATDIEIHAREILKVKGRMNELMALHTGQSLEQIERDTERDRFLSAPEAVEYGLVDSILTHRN
Experimental: Briefly, 25 ng/μL of E. coli ClpP dissolved in a buffer containing 100 mM NaCl, 100 mM 4-(2-hydroxyethyl)-1-piperazineethanesulfonic acid (HEPES) pH 7.5, and 0.05% Brij® 35 were transferred into each well. Test compound addition (final concentration 200 µM) was carried out using an Echo® 550 liquid handling system (Labcyte, Sunnyvale, CA, USA). […] Changes in fluorescence (excitation 350 nm, emission 435 nm) were monitored at 1 min intervals at 30 °C over 1 h using an Infinite M1000 microplate reader (Tecan).
The assay was carried out as described above with increasing concentrations of test compounds. Dose-response experiments were done at least 3 times independently, each in technical triplicates.
Calculation of Z prime (Z’) for HTS assay performance was done according to Zhang et al.. Plates were considered for further analyses if Z’ > 0.6 [26].

E. coli ClpP [2] = molecular target: T1, E. coli ClpP; test: Surface plasmon resonance binding to immobilized ClpP; conditions: 80 µM, injected over 7 min, 30 min dissociation
Experimental: E. coli ClpP (80 μg/mL) protein was immobilized, using amine coupling (SPR-AS-HCA-03, Bruker Daltonics Inc., Billerica, MA, USA), onto the surface of the sensor chip of a SIERRA SPR-16 instrument (Bruker Daltonics GmbH, Bremen, Germany). ClpP protein was dissolved in acetate at pH 4. The running buffer contained 150 mM NaCl, 10 mM Hepes, 3 mM EDTA, and 0.05% (v/v) Tween-20. The flow rate for protein immobilization was 10 μL/min. Binding experiments were carried out using running buffer with the addition of 0.8% (v/v) of DMSO and 80 µM test substance (flow rate of 20 μL/min for 7 min and up to 30 min of dissociation time). […] SPR data were analyzed using the Analyzer 3 software (Bruker Daltonics GmbH), which includes algorithms for subtracting reference signals and accounting for non-specific interactions between the solvent and the sensor chip surface.

A549 cells = test: in vitro; assay type: cell-based; conditions: for IC50: 48 h incubation, 1:3 dilutions starting from 200 μM, read-out: Cytotoxicity A549 IC50
Experimental: (§1) Potential cell toxicity of the tested compounds was evaluated by ATP quantification using the CellTiter-Glo® luminescent cell viability assay (Promega, Madison, WI, USA). […] After incubation, 20 µL of CellTiter-Glo® reagent were added per well and incubated at room temperature in the dark for another 30 min. Luminescence was quantified by an EnVision multi-plate reader (PerkinElmer, Rodgau, Germany).

HTC-116 cells = test: in vitro; assay type: cell-based; conditions: for IC50: 48 h incubation, 1:3 dilutions starting from 200 μM, read-out: Cytotoxicity HTC-116 IC50
Experimental: as §1

MCF-7 cells = test: in vitro; assay type: cell-based; conditions: for IC50: 48 h incubation, 1:3 dilutions starting from 200 μM, read-out: Cytotoxicity MCF-7 IC50
Experimental: as §1

bovine α-chymotrypsin = molecular target: T2, bovine α-chymotrypsin (Bos taurus, UniProt P00766); test: Serine protease selectivity assay with bovine α-chymotrypsin (Suc-LY-AMC); assay type: biochemical; conditions: 200 μM compound concentration
T2 construct: purchased Sigma-Aldrich C4129
Experimental: Compound selectivity was assessed using bovine α-chymotrypsin (#C4129, Sigma-Aldrich, St. Louis, MO, USA) at 200 µM. The assay was carried out as described above, except that 1 ng/μL of α-chymotrypsin and 100 μM of Suc-LY-AMC substrate were dissolved in a buffer containing 150 mM NaCl, 10 mM CaCl2, 50 mM Tris-HCl, and 0.05% Brij® 35.

[3] = tested on: E. coli BW25-113 (wild type); test: Growth delay under nitric oxide stress (DPTA NONOate) in M9 medium, wild type; assay type: cell-based; conditions: WT E. coli, 100 μM compound, M9 minimal medium
Experimental: (§2) Assessment of E. coli growth delay in presence of nitric oxide stress was carried out following our recently published protocol, which is an adaptation of the method reported by Robinson and Brynildsen to a 96-well plate format. Fresh MHB medium was inoculated with isolated colonies of E. coli BW25-113 or E. coli JW0427-1, grown on Luria Agar, and left overnight in a shaking incubator (250 rpm) at 37 °C. On the following day, the overnight culture was used to inoculate fresh M9 medium (supplemented with 10 mM glucose) 1:100, and was grown until OD600 ~0.3. Afterwards, the culture was transferred into 96-well, flat-bottom, sterile clear plates (#167008, Nunc, VWR). Bacterial OD600 was adjusted to 0.1 with M9 medium (supplemented with 10 mM glucose). Test compounds were transferred into the 96-well plates, followed by addition of the bacterial culture. Nitric oxide stress was induced by addition of 2 mM DPTA NONOate ((Z)-1-[N-(3-aminopropyl)-N-(3-ammoniopropyl)amino]diazen-1-ium-1,2-diolate, Cayman Chemical, Ann Arbor, MI, USA), dissolved in NaOH (final concentration 0.14 mM). Absorbance measurements (600 nm) were done with a Multiskan GO or Varioskan LUX plate reader (Thermo Fisher Scientific, Finland) at hourly intervals for 24 h. Between measurements, plates were incubated in a shaking incubator (500 rpm) at 37 °C.

E. coli JW0427 (ΔclpP) = test: Growth delay under nitric oxide stress (DPTA NONOate) in M9 medium, clpP-deficient strain; assay type: cell-based; conditions: clpP-deficient E. coli, DPTA NONOate, compared with cells without compound
Experimental: as §2

[4] = dose-response, 1:3 dilution starting from 200 μM, substrate Suc-LY-AMC

## C[n+]1ccccc1CC(=O)c1ccc(Br)cc1.[I-] [S 24795]
E. coli ClpP [1]
  E. coli ClpP inhibition [%] in the primary screen: 76.27%

## O=C(O)Cn1c(C(=O)Nc2nc(-c3ccccc3Cl)cs2)cc2ccccc21 [SR 27897 hydrate]
E. coli ClpP [1]
  E. coli ClpP inhibition [%] in the primary screen: 84.71%

## O=C(O)c1cc(/N=N/c2ccc(S(=O)(=O)Nc3ccccn3)cc2)ccc1O [Sulfasalazine]
E. coli ClpP [1]
  inhibition at 200 µM: 77.3%

## CCN(CC)CCNC(=O)c1c(C)[nH]c(/C=C2\C(=O)Nc3ccc(F)cc32)c1C [Sunitinib Malate]
E. coli ClpP [1]
  inhibition at 200 µM: 80.7%

## N#CC(C#N)=Cc1ccc(O)c(O)c1 [Tyrphostin 23]
E. coli ClpP [1]
  inhibition at 200 µM: 79.3%

## N#CC(C#N)=C(N)/C(C#N)=C/c1cc(O)c(O)c(O)c1 [Tyrphostin 51]
E. coli ClpP [1]
  inhibition at 200 µM: 72.8%

## CC(C)C[C@H](NC(=O)OCc1ccccc1)C(=O)N[C@@H](Cc1ccc(O)cc1)C(=O)CCl [Z-LY-CMK, benzyloxycarbonyl-leucyl-tyrosine chloromethyl ketone] (HELM PEPTIDE1{[O=C(OCc1ccccc1)[*:2]].L.Y.[ClC[*:1]]}$$$$V2.0)
E. coli ClpP [1]
  Inhibition (%) at 200 μM E. coli ClpP: 98.6%
E. coli ClpP [1]; [4]
  IC50: 14 µM
E. coli ClpP [2]
  Covalent / irreversible binding to ClpP by SPR: irreversibly binding
A549 cells
  IC50: 7.15 µM
  Cytotoxicity A549 Ratio (IC50 cytotoxicity/IC50 ClpP): 0.51
HTC-116 cells
  IC50: 3.54 µM
HTC-116 cells; HTC-116
  Cytotoxicity HTC-116 Ratio (IC50 cytotoxicity/IC50 ClpP): 0.25
MCF-7 cells
  IC50: 0.05 µM
  Cytotoxicity MCF-7 Ratio (IC50 cytotoxicity/IC50 ClpP): 0

## N.N.[Cl-].[Cl][Pt+].c1ccncc1 [cDPCP]
Bovine α-chymotrypsin
  Inhibition (%) at 200 μM α-Chymotrypsin: 84.7%
E. coli ClpP [1]
  Inhibition (%) at 200 μM E. coli ClpP: 91.2%
  E. coli ClpP inhibition [%] in the primary screen: 91.16% and > 90%
E. coli ClpP [1]; [4]
  IC50: 24.6 µM
[3]
  Bacterial growth in absence of NO• stress: clearly influenced
E. coli JW0427 (ΔclpP)
  Growth delay in presence of nitric oxide stress: did not show any significant effect
E. coli ClpP [2]
  SPR signal (resonance units, RU): high RU values
A549 cells
  IC50: 131 µM
  Cytotoxicity A549 Ratio (IC50 cytotoxicity/IC50 ClpP): 5.33
HTC-116 cells
  IC50: 283 µM
MCF-7 cells
  IC50: 3.27 µM
  Cytotoxicity MCF-7 Ratio (IC50 cytotoxicity/IC50 ClpP): 0.13

## Cn1c(=O)c2c(ncn2C)n(C)c1=O [caffeine]
E. coli ClpP [2]
  Covalent / irreversible binding to ClpP by SPR: did not show any interaction

## N.N.O=C([O-])C1(C(=O)[O-])CCC1.[Pt+2] [carboplatin]
E. coli ClpP [1]
  E. coli ClpP inhibition [%] in the primary screen: 5.4%

## CO[C@@]1(NC(=O)C2SC(=C(C(N)=O)C(=O)O)S2)C(=O)N2C(C(=O)O)=C(CSc3nnnn3C)CS[C@@H]21 (stereo partly shown) [cefotetan]
E. coli ClpP [1]
  inhibition at 200 µM: -4.6 to 19.3%

## CO/N=C(\C(=O)N[C@@H]1C(=O)N2C(C(=O)O)=C(CSc3nc(=O)c(=O)[nH]n3C)CS[C@H]12)c1csc(N)n1 [ceftriaxone]
E. coli ClpP [1]
  inhibition at 200 µM: -4.6 to 19.3%

## N=C(N)N/N=C/c1c(Cl)cccc1Cl [guanabenz]
E. coli ClpP [1]; [4]
  E. coli ClpP IC50: did not confirm as ClpP inhibitor
E. coli ClpP [1]
  E. coli ClpP inhibition [%] in the primary screen: > 90%
  inhibition at 200 µM: 100%
